In the supplement of paper PMC10307832:

Columns and labels:
Assay in all cases: relative viability (nuclei count vs DMSO), 5 days (fraction); higher = more cells survive
Tozasertib + Palbociclib = compound: Cc1cc(Nc2cc(N3CCN(C)CC3)nc(Sc3ccc(NC(=O)C4CC4)cc3)n2)n[nH]1 [Tozasertib] + CC(=O)c1c(C)c2cnc(Nc3ccc(N4CCNCC4)cn3)nc2n(C2CCCC2)c1=O [Palbociclib] (partner 0.5 µM)
Method in brief: (§1)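 Lung cancer cell lines in 1536-well plates were dosed by pin tool the day after seeding, either with one drug alone or with a fixed anchor-drug dose plus five library-drug doses (not always all listed) in √10 steps. After 5 days, cells were fixed and their nuclei stained in one step (final 0.05% Triton X-100, 1% formaldehyde, 1 ug/ml Hoechst), then counted on 4× images. Relative viability is the nuclei count in treated wells divided by that in vehicle wells. Values are medians of duplicate plates.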

Tozasertib + Olaparib = compound: Cc1cc(Nc2cc(N3CCN(C)CC3)nc(Sc3ccc(NC(=O)C4CC4)cc3)n2)n[nH]1 [Tozasertib] + O=C(c1cc(Cc2n[nH]c(=O)c3ccccc23)ccc1F)N1CCN(C(=O)C2CC2)CC1 [Olaparib] (partner 8 µM)
Method in brief: as §1

Tozasertib + Trametinib = compound: Cc1cc(Nc2cc(N3CCN(C)CC3)nc(Sc3ccc(NC(=O)C4CC4)cc3)n2)n[nH]1 [Tozasertib] + CC(=O)Nc1cccc(-n2c(=O)n(C3CC3)c(=O)c3c(Nc4ccc(I)cc4F)n(C)c(=O)c(C)c32)c1 [Trametinib] (partner 0.02 µM)
Method in brief: as §1

Tozasertib + OSI-027 = compound: Cc1cc(Nc2cc(N3CCN(C)CC3)nc(Sc3ccc(NC(=O)C4CC4)cc3)n2)n[nH]1 [Tozasertib] + COc1cccc2cc(-c3nc([C@H]4CC[C@H](C(=O)O)CC4)n4ncnc(N)c34)[nH]c12 [OSI-027] (partner 0.5 µM)
Method in brief: as §1

Tozasertib + Pemetrexed = compound: Cc1cc(Nc2cc(N3CCN(C)CC3)nc(Sc3ccc(NC(=O)C4CC4)cc3)n2)n[nH]1 [Tozasertib] + Nc1nc2[nH]cc(CCc3ccc(C(=O)N[C@@H](CCC(=O)O)C(=O)O)cc3)c2c(=O)[nH]1 [Pemetrexed] (partner 0.2 µM)
Method in brief: as §1

Tozasertib + Vorinostat = compound: Cc1cc(Nc2cc(N3CCN(C)CC3)nc(Sc3ccc(NC(=O)C4CC4)cc3)n2)n[nH]1 [Tozasertib] + O=C(CCCCCCC(=O)Nc1ccccc1)NO [Vorinostat] (partner 1 µM)
Method in brief: as §1

Tozasertib + AZD7762 = compound: Cc1cc(Nc2cc(N3CCN(C)CC3)nc(Sc3ccc(NC(=O)C4CC4)cc3)n2)n[nH]1 [Tozasertib] + NC(=O)Nc1cc(-c2cccc(F)c2)sc1C(=O)N[C@H]1CCCNC1 [AZD7762] (partner 0.2 µM)
Method in brief: as §1

Tozasertib + Decitabine = compound: Cc1cc(Nc2cc(N3CCN(C)CC3)nc(Sc3ccc(NC(=O)C4CC4)cc3)n2)n[nH]1 [Tozasertib] + Nc1ncn([C@H]2C[C@H](O)[C@@H](CO)O2)c(=O)n1 [Decitabine] (partner 2 µM)
Method in brief: as §1

Tozasertib = compound: Cc1cc(Nc2cc(N3CCN(C)CC3)nc(Sc3ccc(NC(=O)C4CC4)cc3)n2)n[nH]1 [Tozasertib]
Method in brief: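 MetaXpress counted nuclei in 4× images of lung cancer cell lines that had been fixed, permeabilised and Hoechst-stained in one step. Before that, cells in 1536-well plates were kept overnight at 37 °C, pinned with five √10-spaced library-drug doses on vehicle-anchored plates, and cultured 5 days without medium change. Viability takes treated-well nuclei over vehicle-well nuclei and uses the median across plates. Plates were accepted only at control CV below 25% and at least one doubling.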

Tozasertib + Foretinib = compound: Cc1cc(Nc2cc(N3CCN(C)CC3)nc(Sc3ccc(NC(=O)C4CC4)cc3)n2)n[nH]1 [Tozasertib] + COc1cc2c(Oc3ccc(NC(=O)C4(C(=O)Nc5ccc(F)cc5)CC4)cc3F)ccnc2cc1OCCCN1CCOCC1 [Foretinib] (partner 0.25 µM)
Method in brief: as §1

Tozasertib + Luminespib = compound: Cc1cc(Nc2cc(N3CCN(C)CC3)nc(Sc3ccc(NC(=O)C4CC4)cc3)n2)n[nH]1 [Tozasertib] + CCNC(=O)c1noc(-c2cc(C(C)C)c(O)cc2O)c1-c1ccc(CN2CCOCC2)cc1 [Luminespib] (partner 0.01 µM)
Method in brief: as §1

Tozasertib + Phenformin = compound: Cc1cc(Nc2cc(N3CCN(C)CC3)nc(Sc3ccc(NC(=O)C4CC4)cc3)n2)n[nH]1 [Tozasertib] + N=C(N)NC(=N)NCCc1ccccc1 [Phenformin] (partner 250 µM)
Method in brief: as §1

Tozasertib + Dasatinib = compound: Cc1cc(Nc2cc(N3CCN(C)CC3)nc(Sc3ccc(NC(=O)C4CC4)cc3)n2)n[nH]1 [Tozasertib] + Cc1nc(Nc2ncc(C(=O)Nc3c(C)cccc3Cl)s2)cc(N2CCN(CCO)CC2)n1 [Dasatinib] (partner 0.075 µM)
Method in brief: as §1

What does the source list for NCI-H1648?
relative viability (Tozasertib + Palbociclib; first compound 0.004 µM): 0.279; relative viability (Tozasertib + Palbociclib; first compound 0.01265 µM): 0.304; relative viability (Tozasertib + Palbociclib; first compound 0.04 µM): 0.276; relative viability (Tozasertib + Palbociclib; first compound 0.1265 µM): 0.255; relative viability (Tozasertib + Olaparib; first compound 0.004 µM): 1.64; relative viability (Tozasertib + Olaparib; first compound 0.01265 µM): 0.767; relative viability (Tozasertib + Olaparib; first compound 0.04 µM): 0.844; relative viability (Tozasertib + Olaparib; first compound 0.1265 µM): 0.531; relative viability (Tozasertib + Trametinib; first compound 0.004 µM): 0.488; relative viability (Tozasertib + Trametinib; first compound 0.01265 µM): 0.444; relative viability (Tozasertib + Trametinib; first compound 0.04 µM): 0.425; relative viability (Tozasertib + Trametinib; first compound 0.1265 µM): 0.41; relative viability (Tozasertib + OSI-027; first compound 0.1265 µM): 0.237; relative viability (Tozasertib + Pemetrexed; first compound 0.004 µM): 0.891; relative viability (Tozasertib + Pemetrexed; first compound 0.01265 µM): 0.665; relative viability (Tozasertib + Pemetrexed; first compound 0.04 µM): 0.773; relative viability (Tozasertib + Pemetrexed; first compound 0.1265 µM): 0.615; relative viability (Tozasertib + Vorinostat; first compound 0.004 µM): 0.42; relative viability (Tozasertib + Vorinostat; first compound 0.01265 µM): 0.296; relative viability (Tozasertib + Vorinostat; first compound 0.04 µM): 0.425; relative viability (Tozasertib + Vorinostat; first compound 0.1265 µM): 0.379; relative viability (Tozasertib + AZD7762; first compound 0.004 µM): 0.717; relative viability (Tozasertib + AZD7762; first compound 0.01265 µM): 0.619; relative viability (Tozasertib + AZD7762; first compound 0.04 µM): 0.596; relative viability (Tozasertib + AZD7762; first compound 0.1265 µM): 0.393; relative viability (Tozasertib + Decitabine; first compound 0.004 µM): 0.461; relative viability (Tozasertib + Decitabine; first compound 0.01265 µM): 0.461; relative viability (Tozasertib + Decitabine; first compound 0.04 µM): 0.383; relative viability (Tozasertib + Decitabine; first compound 0.1265 µM): 0.401; relative viability (Tozasertib; 0.01265 µM): 0.779; relative viability (Tozasertib; 0.04 µM): 0.743; relative viability (Tozasertib; 0.1 µM, anchor plate): 0.497; relative viability (Tozasertib; 0.1265 µM): 0.79

Which results are given for SW 900?
relative viability (Tozasertib + Palbociclib; first compound 0.004 µM): 0.62; relative viability (Tozasertib + Palbociclib; first compound 0.01265 µM): 0.536; relative viability (Tozasertib + Palbociclib; first compound 0.04 µM): 0.542; relative viability (Tozasertib + Palbociclib; first compound 0.1265 µM): 0.382; relative viability (Tozasertib + Foretinib; first compound 0.004 µM): 0.914; relative viability (Tozasertib + Foretinib; first compound 0.01265 µM): 0.825; relative viability (Tozasertib + Foretinib; first compound 0.04 µM): 1.08; relative viability (Tozasertib + Foretinib; first compound 0.1265 µM): 0.638; relative viability (Tozasertib + Luminespib; first compound 0.004 µM): 0.167; relative viability (Tozasertib + Luminespib; first compound 0.01265 µM): 0.188; relative viability (Tozasertib + Luminespib; first compound 0.04 µM): 0.205; relative viability (Tozasertib + Luminespib; first compound 0.1265 µM): 0.173; relative viability (Tozasertib + Olaparib; first compound 0.004 µM): 0.802; relative viability (Tozasertib + Olaparib; first compound 0.01265 µM): 0.809; relative viability (Tozasertib + Olaparib; first compound 0.04 µM): 0.851; relative viability (Tozasertib + Olaparib; first compound 0.1265 µM): 0.619; relative viability (Tozasertib + Trametinib; first compound 0.004 µM): 0.653; relative viability (Tozasertib + Trametinib; first compound 0.01265 µM): 0.798; relative viability (Tozasertib + Trametinib; first compound 0.04 µM): 0.911; relative viability (Tozasertib + Trametinib; first compound 0.1265 µM): 0.509; relative viability (Tozasertib + OSI-027; first compound 0.004 µM): 0.767; relative viability (Tozasertib + OSI-027; first compound 0.01265 µM): 0.54; relative viability (Tozasertib + OSI-027; first compound 0.04 µM): 0.75; relative viability (Tozasertib + OSI-027; first compound 0.1265 µM): 0.28; relative viability (Tozasertib + Pemetrexed; first compound 0.004 µM): 0.516; relative viability (Tozasertib + Pemetrexed; first compound 0.04 µM): 0.498; relative viability (Tozasertib + Pemetrexed; first compound 0.1265 µM): 0.408; relative viability (Tozasertib + Vorinostat; first compound 0.004 µM): 0.579; relative viability (Tozasertib + Vorinostat; first compound 0.01265 µM): 0.436; relative viability (Tozasertib + Vorinostat; first compound 0.1265 µM): 0.266; relative viability (Tozasertib + Phenformin; first compound 0.004 µM): 0.583; relative viability (Tozasertib + Phenformin; first compound 0.01265 µM): 0.381; relative viability (Tozasertib + Phenformin; first compound 0.04 µM): 0.708; relative viability (Tozasertib + Phenformin; first compound 0.1265 µM): 0.586; relative viability (Tozasertib + Dasatinib; first compound 0.004 µM): 0.79; relative viability (Tozasertib + Dasatinib; first compound 0.01265 µM): 0.51; relative viability (Tozasertib + Dasatinib; first compound 0.04 µM): 0.503; relative viability (Tozasertib + Dasatinib; first compound 0.1265 µM): 0.567; relative viability (Tozasertib + AZD7762; first compound 0.004 µM): 0.485; relative viability (Tozasertib + AZD7762; first compound 0.01265 µM): 0.72; relative viability (Tozasertib + AZD7762; first compound 0.04 µM): 0.622; relative viability (Tozasertib + AZD7762; first compound 0.1265 µM): 0.467; relative viability (Tozasertib + Decitabine; first compound 0.004 µM): 0.43; relative viability (Tozasertib + Decitabine; first compound 0.01265 µM): 0.442; relative viability (Tozasertib + Decitabine; first compound 0.04 µM): 0.347; relative viability (Tozasertib + Decitabine; first compound 0.1265 µM): 0.375; relative viability (Tozasertib; 0.004 µM): 1.06; relative viability (Tozasertib; 0.01265 µM): 0.736; relative viability (Tozasertib; 0.04 µM): 0.933; relative viability (Tozasertib; 0.1 µM, anchor plate): 0.566; relative viability (Tozasertib; 0.1265 µM): 0.62
